Test results as given in PMC10817917, “Alkyl deoxyglycoside-polymyxin combinations against critical priority carbapenem-resistant gram-negative bacteria” (Scientific Reports, 2024).
Where two headings read alike, the source gives them in different places.

Experiments:
P. aeruginosa CQ4924 = assay: Broth microdilution MIC, glycosides with or without polymyxins; type: cell-based, Pseudomonas aeruginosa; settings: for MIC: Pseudomonas aeruginosa, CQ4924
E. coli ATCC 25922 = assay: Broth microdilution MIC/MBC, glycosides with or without polymyxins; type: cell-based, Escherichia coli; settings: for MIC: Escherichia coli, ATCC25922
K. pneumoniae CQ1947 = assay: Broth microdilution MIC, glycosides with or without polymyxins; type: cell-based, Klebsiella pneumoniae; settings: for MIC: Klebsiella pneumoniae, CQ1947
A. baumannii CQ4322 = assay: Broth microdilution MIC/MBC, glycosides with or without polymyxins; type: cell-based, Acinetobacter baumannii; settings: for MIC: Acinetobacter baumannii, CQ4322
[1] = alone, read-out: MICA (MIC of each compound individually)
[2] = combination with the lowest FICI
[3] = compound + colistin, lowest FICI

CCCCCCCCCCCCO[C@H]1O[C@H](C)C[C@H](O)[C@H]1O [Compound 1, dodecyl 4,6-dideoxy-α/β-D-xylo-hexopyranoside]
MIC of colistin in combination with the compound (P. aeruginosa CQ4924; Cpd conc. 0.4 μg/mL, strain H): > 0.5 µg/mL | MIC of colistin in combination with the compound (P. aeruginosa CQ4924; Cpd conc. 0.8 μg/mL, strain H): > 0.5 µg/mL | MIC of colistin in combination with the compound (P. aeruginosa CQ4924; Cpd conc. 3.125 μg/mL, strain H): > 0.5 µg/mL | MIC of colistin in combination with the compound (P. aeruginosa CQ4924; Cpd conc. 6.25 μg/mL, strain H): > 0.5 µg/mL | MIC of colistin in combination with the compound (P. aeruginosa CQ4924; Cpd conc. 12.5 μg/mL, strain H): > 0.5 µg/mL | MIC of colistin in combination with the compound (P. aeruginosa CQ4924; Cpd conc. […], strain H): > 0.5 µg/mL | MIC of compound in combination with PMB (P. aeruginosa CQ4924; PMB 0.25 μg/mL, strain H): > 100 µg/mL | MIC of compound in combination with PMB (P. aeruginosa CQ4924; PMB 0.5 μg/mL, strain H): > 100 µg/mL | MIC (P. aeruginosa CQ4924; agent alone, no adjuvant (polymyxin conc. 0), strain H, read-out: MIC): > 100 µg/mL | MIC (P. aeruginosa CQ4924; [1]): > 100 µg/mL | MIC of compound in combination with colistin (P. aeruginosa CQ4924; colistin 0.06 μg/mL, strain H): > 100 µg/mL | MIC of compound in combination with colistin (P. aeruginosa CQ4924; colistin 0.125 μg/mL, strain H): > 100 µg/mL | MIC of compound in combination with colistin (P. aeruginosa CQ4924; colistin 0.25 μg/mL, strain H): > 100 µg/mL | MIC of colistin in combination with the compound (E. coli ATCC 25922; Cpd conc. 0.4 μg/mL, strain A): > 0.5 µg/mL | MIC of colistin in combination with the compound (E. coli ATCC 25922; Cpd conc. 0.8 μg/mL, strain A): > 0.5 µg/mL | MIC of colistin in combination with the compound (E. coli ATCC 25922; Cpd conc. 3.125 μg/mL, strain A): 0.25 µg/mL | MIC of colistin in combination with the compound (E. coli ATCC 25922; Cpd conc. 6.25 μg/mL, strain A): 0.25 µg/mL | MIC of colistin in combination with the compound (E. coli ATCC 25922; Cpd conc. 12.5 μg/mL, strain A): 0.25 µg/mL | MIC of colistin in combination with the compound (E. coli ATCC 25922; Cpd conc. […], strain A): > 0.5 µg/mL | MIC (E. coli ATCC 25922; agent alone, no adjuvant (polymyxin conc. 0), strain A, read-out: MIC): > 100 µg/mL | MIC (E. coli ATCC 25922; [1]): > 100 µg/mL | MIC of compound in combination with PMB (E. coli ATCC 25922; PMB 0.25 μg/mL, strain A): > 100 µg/mL | MIC of compound in combination with PMB (E. coli ATCC 25922; PMB 0.5 μg/mL, strain A): 3.1 µg/mL | MIC of compound in combination with colistin (E. coli ATCC 25922; colistin 0.06 μg/mL, strain A): > 100 µg/mL | MIC of compound in combination with colistin (E. coli ATCC 25922; colistin 0.125 μg/mL, strain A): > 100 µg/mL | MIC of compound in combination with colistin (E. coli ATCC 25922; colistin 0.25 μg/mL, strain A): 3.1 µg/mL | MIC of compound in combination with colistin (E. coli ATCC 25922; colistin 0.5 μg/mL, strain A): 3.1 µg/mL | MICA(A + B) (MIC of compound in combination with colistin) (E. coli ATCC 25922; [2]): 3.125 mg/L | MICB(A + B) (MIC of colistin in combination with compound) (E. coli ATCC 25922; [2]): 0.25 mg/L | Interpretation (of FICI) (E. coli ATCC 25922; compound + colistin): Additive (from 0.5 to 1.0 were additive) | FICI (E. coli ATCC 25922; [3]): 0.52 | MIC of colistin in combination with the compound (K. pneumoniae CQ1947; Cpd conc. 0.4 μg/mL, strain F): > 0.5 µg/mL | MIC of colistin in combination with the compound (K. pneumoniae CQ1947; Cpd conc. 0.8 μg/mL, strain F): > 0.5 µg/mL | MIC of colistin in combination with the compound (K. pneumoniae CQ1947; Cpd conc. 3.125 μg/mL, strain F): 0.5 µg/mL | MIC of colistin in combination with the compound (K. pneumoniae CQ1947; Cpd conc. 6.25 μg/mL, strain F): 0.5 µg/mL | MIC of colistin in combination with the compound (K. pneumoniae CQ1947; Cpd conc. 12.5 μg/mL, strain F): 0.5 µg/mL | MIC of colistin in combination with the compound (K. pneumoniae CQ1947; Cpd conc. […], strain F): > 0.5 µg/mL | MIC (K. pneumoniae CQ1947; agent alone, no adjuvant (polymyxin conc. 0), strain F, read-out: MIC): > 100 µg/mL | MIC (K. pneumoniae CQ1947; [1]): > 100 µg/mL | MIC of compound in combination with PMB (K. pneumoniae CQ1947; PMB 0.25 μg/mL, strain F): > 100 µg/mL | MIC of compound in combination with PMB (K. pneumoniae CQ1947; PMB 0.5 μg/mL, strain F): 3.1 µg/mL | MIC of compound in combination with colistin (K. pneumoniae CQ1947; colistin 0.06 μg/mL, strain F): > 100 µg/mL | MIC of compound in combination with colistin (K. pneumoniae CQ1947; colistin 0.125 μg/mL, strain F): > 100 µg/mL | MIC of compound in combination with colistin (K. pneumoniae CQ1947; colistin 0.25 μg/mL, strain F): > 100 µg/mL | MIC of compound in combination with colistin (K. pneumoniae CQ1947; colistin 0.5 μg/mL, strain F): 3.1 µg/mL | MICA(A + B) (MIC of compound in combination with colistin) (K. pneumoniae CQ1947; [2]): 3.125 mg/L | MICB(A + B) (MIC of colistin in combination with compound) (K. pneumoniae CQ1947; [2]): 0.5 mg/L | Interpretation (of FICI) (K. pneumoniae CQ1947; compound + colistin): Indifferent (1.0 to 4.0 were indifferent) | FICI (K. pneumoniae CQ1947; [3]): 1.016 | MIC (A. baumannii CQ4322; agent alone, no adjuvant (polymyxin conc. 0), strain G, read-out: MIC): > 100 µg/mL | MIC (A. baumannii CQ4322; [1]): > 100 µg/mL | MIC of colistin in combination with the compound (A. baumannii CQ4322; Cpd conc. 0.4 μg/mL, strain G): > 0.5 µg/mL | MIC of colistin in combination with the compound (A. baumannii CQ4322; Cpd conc. 0.8 μg/mL, strain G): > 0.5 µg/mL | MIC of colistin in combination with the compound (A. baumannii CQ4322; Cpd conc. 3.125 μg/mL, strain G): 0.25 µg/mL | MIC of colistin in combination with the compound (A. baumannii CQ4322; Cpd conc. 6.25 μg/mL, strain G): 0.25 µg/mL | MIC of colistin in combination with the compound (A. baumannii CQ4322; Cpd conc. 12.5 μg/mL, strain G): 0.25 µg/mL | MIC of colistin in combination with the compound (A. baumannii CQ4322; Cpd conc. […], strain G): 0.5 µg/mL | MIC of compound in combination with PMB (A. baumannii CQ4322; PMB 0.25 μg/mL, strain G): > 100 µg/mL | MIC of compound in combination with PMB (A. baumannii CQ4322; PMB 0.5 μg/mL, strain G): 3.1 µg/mL | MIC of compound in combination with colistin (A. baumannii CQ4322; colistin 0.06 μg/mL, strain G): > 100 µg/mL | MIC of compound in combination with colistin (A. baumannii CQ4322; colistin 0.125 μg/mL, strain G): > 100 µg/mL | MIC of compound in combination with colistin (A. baumannii CQ4322; colistin 0.25 μg/mL, strain G): 3.1 µg/mL | MIC of compound in combination with colistin (A. baumannii CQ4322; colistin 0.5 μg/mL, strain G): 1.6 µg/mL | MICA(A + B) (MIC of compound in combination with colistin) (A. baumannii CQ4322; [2]): 3.125 mg/L | MICB(A + B) (MIC of colistin in combination with compound) (A. baumannii CQ4322; [2]): 0.25 mg/L | Interpretation (of FICI) (A. baumannii CQ4322; compound + colistin): Additive (from 0.5 to 1.0 were additive) | FICI (A. baumannii CQ4322; [3]): 0.52
